Biological target: T1, carboxyltransferase from S. aureus (SaCT) (Staphylococcus aureus, UniProt Q2FXM7+Q5HF73)
T1 sequence (Q2FXM7 1-314): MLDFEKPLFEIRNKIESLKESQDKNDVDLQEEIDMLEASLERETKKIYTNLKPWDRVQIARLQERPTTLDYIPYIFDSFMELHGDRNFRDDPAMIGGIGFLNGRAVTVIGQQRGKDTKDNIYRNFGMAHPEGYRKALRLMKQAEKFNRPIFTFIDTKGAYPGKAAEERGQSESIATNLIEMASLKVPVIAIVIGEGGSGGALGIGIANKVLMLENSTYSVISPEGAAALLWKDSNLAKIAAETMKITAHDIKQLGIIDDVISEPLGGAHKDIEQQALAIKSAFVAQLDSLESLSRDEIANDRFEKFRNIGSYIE
T1 sequence (Q5HF73 1-285): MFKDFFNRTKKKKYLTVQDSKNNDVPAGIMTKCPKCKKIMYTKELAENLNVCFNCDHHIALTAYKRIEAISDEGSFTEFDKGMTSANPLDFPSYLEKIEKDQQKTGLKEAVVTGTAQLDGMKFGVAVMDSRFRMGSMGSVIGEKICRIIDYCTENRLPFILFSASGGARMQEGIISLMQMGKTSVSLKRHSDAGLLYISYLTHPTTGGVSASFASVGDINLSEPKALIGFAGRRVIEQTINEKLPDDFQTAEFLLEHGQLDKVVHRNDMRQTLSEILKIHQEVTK
Experiment: coupled citrate synthase / malate dehydrogenase assay at […] nm, reverse direction
Assay type: biochemical
Conditions: 150 μM malonyl-CoA, 6 mM biocytin, pH 8.0

C[C@H]1CC(=O)NC1=O [compound 4, (3S)-Methyl-pyrrolidine-2,5-dione]
% decrease in activity at 50 nM: 65%

Source: article PMC5226424 (Biochemistry, 2016)
